Assay results: PMC9456261 (International Journal of Molecular Sciences, 2022)

Key:
Vero E6 cells = test: Cytotoxicity, MTT assay
in vitro = conditions: African green monkey
SARS-CoV-2 = test: Time-of-drug-addition assay (qRT-PCR of viral RNA in supernatant); format: cell-based; conditions: 25 µM, Vero E6, MOI 0.01, qRT-PCR 18 h post-infection
Description: To explore which steps of the SARS-CoV-2 replication cycle were interrupted by the test compounds, we performed a time-of-drug-addition assay for compounds 874 and 876, which were selected as representatives with different substituents at positions N1 and N3. Cells were treated with 25 µm of these compounds at various stages of infection (entry, full time and post-entry) which was followed by qRT-PCR assays.
The assays were performed as described previously. Briefly, Vero E6 cells were seeded into 96-well plates and treated with 874 or 876 (25 µM) at different stages of virus infection (full-time, entry and post-entry). The cells were infected with SARS-CoV-2 (MOI = 0.01) and then incubated for 1 h. The viral inoculum was then removed, and the cells were washed twice with PBS. At 18 h post-infection, the cell culture supernatant of each time point experiment was collected for viral yield measurements using qRT–PCR, as described in [31, 33].
Figure 3 Time-of-drug-addition Assay. Vero E6 cells were treated with the compounds at different time points of the viral replication cycle as described in the Materials and Methods chapter. For all experimental groups, cells were infected with SARS-CoV-2 at an MOI of 0.01. Viral RNA copies in the supernatant were quantified by qRT-PCR at 18 h post-infection. All results are shown as mean ± SEM (n = 3). One-way ANOVA with Tukey’s post hoc test: ** p < 0.01, *** p < 0.001 and **** p < 0.0001.

[1] = target: SARS-CoV-2 RdRp (NSP12, NSP7 and NSP8) (Severe acute respiratory syndrome coronavirus 2, UniProt P0DTD1); test: Inhibition of SARS-CoV-2 RNA-dependent RNA polymerase activity (Profoldin kit); format: biochemical
Description: SARS-CoV-2 RdRp activity was inhibited by 876 at 100 µM and 50 µM, by 100% and 60%, respectively (Figure 6).
The activity of SARS-CoV-2 RdRp was assessed using the SARS-CoV-2 RNA-dependent RNA polymerase kit plus (Profoldin #S2RPA100KE), according to the manufacture instructions. In brief, reactions were carried out at 35 °C for 2 h in the presence or absence (control) of the test compound. Then, fluorescent dye was added, and fluorescence was determined using a Qubit fluorimeter (Thermo Fisher, MA, USA). The inhibition of RdRp activity was calculated from the values obtained for control samples.
Figure 6 Uracil Derivative 876 Inhibit the Transcriptional Activity of SARS-CoV-2 RNA-dependent RNA polymerase. Transcriptional inhibition plot of the SARS-CoV-2 replication complex treated with 876 or PBS (control) (n = 3). Results are representative mean ± SEM. One-way ANOVA with Tukey’s post hoc test: *** p < 0.001 and **** p < 0.0001.

Compound | melting point [°C] | CC50 (in vitro) [µM] | other results
4-[5-[3-[5-(2-Bromophenoxy)pentyl]-2,6-dioxo-5-methyl-3,6-dihydropyrimidin-1(^2H)-yl]pentyloxy]benzoic acid [Compound 872] | – | – | CC50 (Vero E6 cells; 72 h): > 50 µM
O=C(O)c1ccc(OCCCCn2c(=O)ccn(Cc3cccc4ccccc34)c2=O)cc1 [Compound 601, 4-[4-[2,6-Dioxo-3-(naphthyl-1-methyl)-3,6-dihydropyrimidin-1(^2H)-yl]butoxy]benzoic acid] | 183 to 184.5 | > 50 | –
O=c1ccn(Cc2c3ccccc3cc3ccccc23)c(=O)n1CCCCCCOc1ccc(Br)cc1 [Compound 611, 1-(Anthracen-9-ylmethyl)-3-[6-(4-bromophenoxy)hexyl]uracil] | – | > 50 | –
O=C(O)c1ccc(OCCCCCn2c(=O)ccn(CCCCCOc3ccc(F)cc3)c2=O)cc1 [Compound 870, 4-[5-[3-[5-(4-Fluorophenoxy)pentyl]-2,6-dioxo-3,6-dihydropyrimidin-1(^2H)-yl]pentyloxy]benzoic acid] | 133 to 135 | > 50 | –
O=C(O)c1ccc(OCCCCCn2c(=O)ccn(CCCCCOc3ccccc3Br)c2=O)cc1 [Compound 871, 4-[5-[3-[5-(2-Bromophenoxy)pentyl]-2,6-dioxo-3,6-dihydropyrimidin-1(^2H)-yl]pentyloxy]benzoic acid] | – | > 25 | Effect on cell proliferation / cell death (Vero E6 cells): reduced cell proliferation without significant cell death
O=C(O)c1ccc(OCCCCn2c(=O)ccn(CCCOc3ccc(Br)cc3)c2=O)cc1 [Compound 873, 4-[4-[3-[3-(4-Bromophenoxy)propyl]-2,6-dioxo-3,6-dihydropyrimidin-1(^2H)-yl]butoxy]benzoic acid] | 122 to 124 | > 50 | –
Cc1cc(C)cc(OCCCCCn2ccc(=O)n(CCCCCOc3ccc(C(=O)O)cc3)c2=O)c1 [Compound 874, 4-[5-[3-[5-(3,5-Dimethylphenoxy)pentyl]-2,6-dioxo-3,6-dihydropyrimidin-1(^2H)-yl]pentyloxy]benzoic acid] | – | > 25 | Production of viral RNA, compound added at entry step (SARS-CoV-2): did not inhibit the production of viral RNA; Virus replication (viral load in supernatant), compound added full time (SARS-CoV-2): inhibited virus replication; Effect on cell proliferation / cell death (Vero E6 cells): reduced cell proliferation without significant cell death
O=C(O)c1ccc(Cn2c(=O)ccn(CCCCCOc3ccc(Br)cc3)c2=O)cc1 [Compound 875] | – | > 50 | –
O=C(O)c1ccc(OCCCCCn2c(=O)ccn(Cc3c4ccccc4cc4ccccc34)c2=O)cc1 [Compound 876] | 173 to 176 | > 50 | Production of viral RNA, compound added at entry step (SARS-CoV-2): did not inhibit the production of viral RNA; Virus replication (viral load in supernatant), compound added full time (SARS-CoV-2): inhibited virus replication; Viral load, compound added post-entry (SARS-CoV-2; post-entry): reduced the viral load; inhibition at 50 µM ([1]; 50 µM): 60%; inhibition at 100 µM ([1]; 100 µM): 100%
O=C(O)c1ccc(OCCCCn2c(=O)ccn(Cc3ccc4ccccc4c3)c2=O)cc1 [Compound 1005, 4-[4-[2,6-Dioxo-3-(naphthyl-2-methyl)-3,6-dihydropyrimidin-1(^2H)-yl]butoxy]benzoic acid] | 143.5 to 145 | > 50 | –
O=C(O)c1ccc(OCCCCn2c(=O)ccn(Cc3ccc(Br)c4ccccc34)c2=O)cc1 [Compound 1006, 4-[4-[3-(4-Bromonaphthyl-1-methyl)-2,6-dioxo-3,6-dihydropyrimidin-1(2H)-yl]butoxy]benzoic acid] | 195.5 to 197.5 | > 50 | –
O=C(O)c1ccc(OCCCn2c(=O)ccn(CCCCCCCCCCCCOc3ccc(Br)cc3)c2=O)cc1 [Compound 1007, 4-[3-[3-[12-(4-Bromophenoxy)dodecyl]-2,6-dioxo-3,6-dihydropyrimidin-1(^2H)-yl]propoxy]benzoic acid] | – | > 25 | Effect on cell proliferation / cell death (Vero E6 cells): reduced cell proliferation without significant cell death
